Assay results reported in PMC2650103 (Journal of medicinal chemistry, 2008).
Read-outs that look alike come from different tables or passages of the source.

How the values were obtained:
[1] = system: vaccinia virus WR in BS-C-1 cells; type: cell-based
BS-C-1 cells = conditions: African green monkey
[2] = Solubility in cell growth medium by light scattering; conditions: at the EC50 / over the range of concentrations used in the activity assays
[3] = system: vaccinia virus WR in BS-C-1 cells; test: microbe, parasite or virus in culture; type: cell-based; conditions: Orthopoxvirus vaccinia, BSC-1, 20 h, read-out: Cell Prot EC50
[4] = system: multiple orthopoxviruses, including two strains of variola virus; conditions: cited from earlier work
[5] = cited from earlier work
[6] = system: vaccinia virus WR in BS-C-1 cells; test: microbe, parasite or virus in culture; type: cell-based; conditions: Orthopoxvirus vaccinia, BSC-1, 20 h, read-out: Plaque Red EC50

Row | Compound | Trapped by dsDNA [1] | Tox 120 h TC50 (BS-C-1 cells) | Solubility in cell growth medium [2] | Tox 72 h TC50 (BS-C-1 cells) | EC50 [3] | Growth of orthopoxviruses in cell cultures [4] | Toxicity on intravenous administration [5] | EC50 [6]
1 | CCNc1nc(SCc2ccc(Cl)cc2)nc2sc3c(c12)CCN(C)C3 [Compound 5] | No | 5 ∞M | – | – | – | – | – | –
2 | Cc1csc2c(N3CCN(C(=O)NC(C)(C)C)CC3)ncnc12 [Compound 4] | No | 40 ∞M | – | – | – | – | – | –
3 | N=C1S/C(=C/c2ccco2)C(=O)N1c1nccs1 [Compound 12] | No | 50 ∞M | just slightly insoluble | >100 ∞M | – | – | – | –
4 | Cc1ccc2c(Sc3ccc(Cl)cc3)c(C(=O)O)[nH]c2c1 [Compound 11] | No | 120 ∞M | – | 174 ∞M | 130 µM | – | – | –
5 | O=C1/C(=C/C2CCCO2)CC/C1=C\C1CCCO1 (stereo not drawn) [Compound 16] | No | 50 ∞M | just slightly insoluble | >100 ∞M | – | – | – | –
6 | O=C(NN1C(=O)C2C3C=CC(C4CC34)C2C1=O)c1ccc(C(F)(F)F)cc1 (stereo not drawn) [Compound 30, 4-trifluoromethyl-N-(3,3a,4,4a,5,5a,6,6a-octahydro-1,3-dioxo-4,6-ethenocycloprop[f]isoindol-2(1H)-yl)-benzamide] | – | – | – | – | – | inhibit the growth | – | –
7 | Nc1ccn(C[C@@H](CO)OCP(=O)(O)O)c(=O)n1.O.O [CDV, (S)-1-(3-hydroxy-2-phosphonylmethoxypropyl)cytosine, reference compound] | No | 300 ∞M | – | >500 ∞M | 132 µM | – | nephrotoxicity | –
8 | O=C(O)Cn1c2ccc(Cl)cc2c2nc3ccccc3nc21 [Compound 13] | No | 30 ∞M | just slightly insoluble | 13 ∞M | – | – | – | –
9 | Cc1cc(/N=C/c2cc(Cl)cc(Cl)c2O)no1 [Compound 6] | No | 20 ∞M | – | 50 ∞M | – | – | – | –
10 | Cc1cc(OC(=O)c2ccco2)nc(SCc2c(Cl)cccc2Cl)n1 [Compound 8] | No | >100 ∞M | just slightly insoluble | >100 ∞M | – | – | – | –
11 | CCn1c2ccccc2c2ccc(/C=N/n3cnnc3)cc21 [Compound 3] | No | 3 ∞M | – | 36 ∞M | – | – | – | –
12 | N=C1/C(=C/c2coc3ccccc3c2=O)C(=O)N=C2SC=NN12 [Compound 14] | No | 50 ∞M | – | >200 ∞M | 188 µM | – | – | 150 µM
13 | CCOC(=O)c1c(NC(=O)/C=C/C(=O)O)sc(C)c1-c1ccccc1 [Compound 2] | No | – | – | – | – | – | – | –
14 | O=C(Nc1ccccc1C(=O)O)OCC1c2ccccc2-c2ccccc21 [Compound 9] | No | 20 ∞M | – | 40 ∞M | 104 µM | – | – | –
15 | Cc1c(/N=C/c2cc(Br)cc(Br)c2O)cccc1C(=O)O [Compound 7] | No | 20 ∞M | – | 38 ∞M | – | – | – | –
16 | COC(=O)c1cccc2c1-c1ccccc1/C2=N\O [Compound 1] | No | 20 ∞M | – | – | – | – | – | –
17 | CC(=O)n1c2ccccc2c2nc(C)sc21 [Compound 15] | No | 75 ∞M | – | >200 ∞M | 236 µM | – | – | –
18 | CCS(=O)(=O)N1CCN=C1SCc1ccc(Cl)cc1Cl [Compound 10] | No | – | just slightly insoluble | – | – | – | – | –
